The target of one series is T1, MIF (Homo sapiens, UniProt P14174).
T1 construct: made in house; host or cells: E. coli BL21(DE3), pET11b (inferred from Section 6; the Section 8 text says only 'recombinant')
T1 sequence (P14174 2-115 limits assumed): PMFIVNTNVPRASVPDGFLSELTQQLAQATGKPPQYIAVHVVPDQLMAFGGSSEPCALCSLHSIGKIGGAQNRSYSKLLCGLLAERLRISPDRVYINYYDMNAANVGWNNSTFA
Put plainly: MIF dopachrome tautomerase activity assay with Compound 1b as MIF-substrate. The series is classed as biochemical. As to conditions: test compound used in place of the MIF-substrate. The text has this: The general method of performing an assay for MIF dopachrome tautomerase activity, described in more detail below, begins with the oxidation of a percursor of the MIF-substrate (e.g., DOPA-related Compound 1a [L-3-(3,4-dihydroxyphenyl) alanine methyl ester] above) and, if required, the similar oxidation of precursors of the test inhibitors (e.g., the DOPA-related Compounds 2a [L-3-(3,4-dihydroxyphenyl)-2-methyl alanine], 3a [D/L-3-(3,4-dihydroxyphenyl)-2-methyl alanine], 4a [L-3-(3,4-dihydroxyphenyl)-2-methyl alanine methyl ester] and 5a [D/L-3-(3,4-dihydroxyphenyl)-2 methyl alanine methyl ester] above). This oxidation of each precursor compound with sodium periodate generates the corresponding orange-colored dopachrome derivative; specifically, a preferred MIF-substrate (Compound 1B above) and the test inhibitors (Compounds 2b, 3b, 4b, and 5b above). Upon addition of MIF, the MIF-substrate (Compound 1b [L-3,5-dihydro-6-hydroxy-5-oxo-2H-indole-2-carboxylic acid methyl ester]) undergoes tautomerization resulting in a colorless product. In the presence of the test inhibitors (Compounds 2b, 3b, 4b, and 5b), decolorization of MIF-substrate (Compound 1b) was retarded. Test compounds 2b, 3b, 4b, and 5b themselves were unreactive in this tautomerization reaction; that is, they were not tautomerized and correspondingly decolorized by MIF dopachrome tautomerase activity if they were substituted for the MIF-substrate in this assay method.
In a preferred MIF dopachrome tautomerase activity assay procedure, the DOPA-related precursors (Compounds 1a, 2a, 3a, 4a, and 5a above) are prepared as 10 mM stock solutions in Assay Buffer (10 mM sodium phosphate, pH 6.0). About 10 minutes before the tautomerization assay, 1.0 ml of each stock solution was diluted with 8 ml of Assay Buffer, and 1.0 ml of sodium periodate stock solution (20 mM in water) was added to initiate the oxidation of the diluted precursors, thus generating each respective dopachrome derivative (i.e., Compounds 1b, 2b, 3b, 4b, and 5b) at a final concentration of 1 mM. To perform the actual tautomerization assay, 0.5 ml of the 1 mM solution of the MIF-substrate (i.e., Compound 1b) was mixed with 0.5 ml of Assay Buffer (no inhibitor control reaction) or 0.5 ml of the 1 mM dilution of the test inhibitor (e.g., Compounds 2b, 3b, 4b, or 5b), followed by addition of 10 μl of recombinant […] solution from a 20 μg/ml stock.

The target in a further series is recombinant human MIF (Homo sapiens, UniProt P14174). Put plainly: biochemical. The conditions noted are these: read-out: % Inhibition of MIF tautomerase activity.
For series [1], the system named is RAW 264.7 macrophages. The experiment in a line: MIF-induced secretion of TNFα by mouse macrophages (L929 cell cytotoxicity readout). The series is classed as cell-based, murine. The protocol: TNFα production was quantitated in MIF-conditioned RAW 264.7 macrophage supernatants by L929 cell cytotoxicity as described previously (Wolpe et al., 1988, J. Exp. Med. 167: 570). RAW 264.7 macrophages were resuspended in RPMI/10% FBS, plated at 1×10^6 cells/ml, incubated for 3 hours at 37° C. in a humidified atmosphere with 5% CO2, and washed twice with RPMI/1% FBS. Cells were incubated for 12-14 hours with various doses of MIF diluted in RPMI/1% FBS. At the end of each experiment, cell culture media were collected, centrifuged (10 min at 800 g), and supplemented with 1 mM PMSF. MIF-induced TNFα activity was measured immediately afterwards.

Series [2] can be described thus: Tautomerase activity of altered or glycated MIF proteins. The series is classed as biochemical. The protocol: A 1 mM solution of L-DOPA methyl ester was prepared in Reaction Buffer (10 mM sodium phosphate, pH 6, containing 0.5 mM EDTA). L-DOPA methyl ester was oxidized to colored L-dipachrome methyl ester by adding 10% (v/v) of a 20 mM aqueous solution of potassium periodate, following a 1:2 dilution with Reaction Buffer.
The test compound, reduced glutathione, was added in concentrations of 0.1 mM, 0.5 mM, 1.0 mM, and 2.0 mM to separate cuvettes containing the substrate solution. Approximately 100 ng of purified recombinant human MIF was added to each cuvette. […]
Purified recombinantly-produced human MIF protein was glycated by incubation in aqueous buffer in the presence of 0.5 M glucose, typically for 6 weeks in the dark at 37° C. under a nitrogen atmosphere to ensure complete glycation of susceptible residues (although other spontaneous glycation conditions will serve to glycate the protein without departing from the essence of the invention) and tested for D-dopachrome tautomerase activity by the method of Section 7 or Section 8. […] The AGE-MIF was recovered and analyzed by matrix-assisted laser desorption ionization mass spectroscopy and determined to have a mass consistent with three-fold Amadori product modification of the protein; that is, there was a mass excess of approximately 3×162 (the mass excess of a single Amadori product). […]

Series [3] has as its system RAW 264.7 macrophages. The experiment in a line: MIF-induced nitric oxide production in macrophages (Griess reagent). The series is classed as cell-based, murine. As to conditions: 1 μg/ml, IFN-γ-primed RAW 264.7 macrophages. The protocol:
Nitric oxide (NO) production was quantitated in MIF-conditioned RAW 264.7 and thioglycollate-elicited peritoneal exudate macrophage supernatants by measuring nitrite and nitrate content with the Griess reagent. RAW 264.7 macrophages were prepared and conditioned as described above. In some experiments, cells were incubated for 1 h with recombinant murine interferon-γ (IFN-γ) (100 IU/ml) (Boehringer-Mannheim, Indianapolis, Ind.) prior to the addition of MIF. Thioglycollate-elicited peritoneal exudate macrophages were obtained from BALB/c mice that were injected intra-peritoneally 3-4 days previously with 2 ml of sterile thioglycollate broth. Cells were harvested under strict aseptic conditions by lavage of the peritoneal cavity with 5 ml of an ice-chilled 11.6% sucrose solution. After centrifugation (10 min at 800 g), cells were resuspended in RPMI/10% FBS and plated at a density of 2×10^6 cells/ml. After 3 h of incubation, non-adherent cells (i.e. PMNs, lymphocytes) were removed with RPMI/1% FBS and the remaining adherent cells conditioned with MIF as described for RAW 264.7 cells. Trace concentrations of contaminating LPS were neutralized by incubating MIF (1 and 10 μg/ml in cell culture media) with polymyxin B at a concentration of 10 and 100 ng/ml, respectively, for 30 min at room temperature under sterile conditions. […]

As to `CC1(C(=O)O)CC2=CC(=O)C(O)=CC2=N1` [Compound 2b, L-3,5-dihydro-6-hydroxy-2-methyl-5-oxo-2H-indole-2-carboxylic acid], the “Tautomerization by MIF when substituted for the MIF-substrate” value (from here on “Tautomerization by MIF when substituted”) on MIF is on record as “unreactive”.

For `CC1(C(=O)O)CC2=CC(=O)C(O)=CC2=N1` [Compound 3b, D/L-3,5-dihydro-6-hydroxy-2-methyl-5-oxo-2H-indole-2-carboxylic acid], the “Tautomerization by MIF when substituted” value on MIF is “unreactive”.

Consider `COC(=O)C1(C)CC2=CC(=O)C(O)=CC2=N1` [Compound 4b, L-3,5-dihydro-6-hydroxy-2-methyl-5-oxo-2H-indole-2-carboxylic acid methyl ester], for which the “Tautomerization by MIF when substituted” value on MIF is reported as “unreactive”.

As to `COC(=O)C1(C)CC2=CC(=O)C(O)=CC2=N1` [Compound 5b, D/L-3,5-dihydro-6-hydroxy-2-methyl-5-oxo-2H-indole-2-carboxylic acid methyl ester], the “Tautomerization by MIF when substituted” value on MIF is given as “unreactive”.

As a reminder, the inhibition is the relative decrease from the control value, in per cent. As to `N[C@@H](CCC(=O)N[C@@H](CS)C(=O)NCC(=O)O)C(=O)O` [Glutathione, glutathione], on recombinant human MIF, the inhibition at 100 µM stood at 14%, the inhibition at 500 µM amounted to 69%, the inhibition at 1000 µM was 95% and the inhibition at 2000 µM came to 100%.

B1: rhuMIF: recombinant human MIF expressed in E. coli from pET11b, native amino-terminus (protein, UniProt P14174 2-115, looked up)
Macrophage migration …: T1 sequence (P14174 2-115 limits assumed)
For the molecule B1, the “Secretion of TNFα induced by MIF” value with RAW 264.7 macrophages [1] (MIF 0.1 μg/ml) came to 2.9 ± 2.4 ng/mL; in the series with RAW 264.7 macrophages [1] (MIF 1 μg/ml), 3.4 ± 2.8 ng/mL; with RAW 264.7 macrophages [1] (MIF 10 μg/ml), 3.9 ± 2.8 ng/mL. Moreover, the “MIF tautomerase activity of expressed protein” value in series [2] (protein expressed in E. coli) is on record as “highly active”. The “NO production activity relative to rmuMIF” value in the series on RAW 264.7 macrophages [3] is given as “approximately 4 fold”.

B2: AGE-MIF: recombinant human MIF glycated by incubation with 0.5 M glucose; three-fold Amadori product modification (protein, UniProt P14174 2-115, looked up)
Macrophage migration …: T1 sequence (P14174 2-115 limits assumed)
modifications: advanced glycation end-product modified
With B2, the “D-dopachrome tautomerase activity of glycated MIF” value in series [2] (human MIF incubated with 0.5 M glucose, typically 6 weeks at 37° C., method of Section 7 or Section 8) is on record as “no D-dopachrome tautomerase activity”.

These data come from patent US20030105014A1, “Screening assay for the identification of inhibitors of macrophage migration inhibitory factor” (priority 1996, published 2003).
